Source: patent US11331375B2, “Compositions and methods for regulating leukocyte adhesion” (University of Virginia Patent Foundation, priority 2015, dated 2022)

Experiments:
VCAM1 = VCAM1 expression in isolated mesenteric venules; format: cell-based, mouse; conditions: EC Panx1 KO venules, TNFα 50 ng/mL, exogenous ATP
Protocol: Male VECadER^T2+/Panx1^fl/fl mice (Tamoxifen or Peanut oil injected) were euthanized by CO2 asphyxiation and subsequent cervical dislocation. Prior to tissue harvesting, fixation was performed by perfusing room temperature 4% paraformaldehyde (PFA) made in PBS through the heart. The mesentery was immediately excised and 2nd order venules were dissected free of surrounding fat and connective tissue and place in 4% PFA for 30 minutes before transfer to 70% ethanol for paraffin embedding. Paraffin sections (4-5 μm in thickness) were de-paraffinized and processed for immunocytochemistry as previously described^10. […]
Following stimulation with TNFα (in vitro: 10 ng/mL; ex vivo: 50 ng/mL), confluent endothelial cell monolayers or isolated mesenteric venules were homogenized in ice cold Triton extraction buffer (50 mM Tris-HCL, 150 mM NaCl , 5 mM EDTA, 1% deoxycholate, 1% NP-40 and 1% Triton-X100 in phosphate buffered saline and pH adjusted to 7.4) containing protease and phosphatase inhibitors. […] Protein concentration was quantified using the BCA method. […] Membranes were then washed and incubated with LiCOR secondary antibodies (1:10,000) and visualized and quantitated using LiCOR Odyssey. […] Data are expressed as mean±SEM (n=3 independent experiments).

HUVEC = test: In vitro ATP release assay (luciferin:luciferase), HUVEC; format: cell-based, human; conditions: HUVEC
Protocol: (§1) In vitro Human arterial and venous ECs were seeded in 24-well plates pre-coated with 0.2% gelatin and grown to confluency. On the day of experiment, the media was removed from each well and cells were carefully washed twice with warm serum free basal EC medium supplemented with 1% BSA. Cells were then incubated in 300 μL of fresh basal EC medium supplemented with 1% BSA for 30 minutes at 37° C. to allow degradation of extracellular ATP released due to mechanical stimulation during washes. Endogenous ecto-nucleotidases were inhibited by incubating EC monolayers with 300 μM ARL 67156 (Tocris) for 30 minutes at 37° C. Cells were then stimulated with recombinant human TNFα (R&D Systems). For dose response experiments, ECs were incubated with 0.1, 1, 5, 10, 50, or 100 ng/mL recombinant TNFα for 30 minutes at 37° C. For time-course experiments, ECs were stimulated with 10 ng/mL recombinant TNFα for different time points up to 1 hour. In experiments where pharmacological inhibitors were employed, ECs were incubated with antagonists in parallel with ARL 67156 for 30 minutes. To inhibit TNFR1, ECs were incubated with the peptide antagonist of the receptor WP9QY (10 μM; Anaspec). […] Cx hemichannels were inhibited with lanthanum (La^3+; 100 μM; Sigma) and Panx1 channels were blocked with carbenoxolone (CBX; 50 μM; Sigma) and the inhibitory peptide ^10panx1 (200 μM; Genscript). […] The role of caspase activation was assessed by inhibition with the pan-caspase blocker Q-VD-OPh (100 μM; Sigma). Following stimulation with TNFα or vehicle, 150 μL of the cell supernatant was collected and immediately placed into pre-chilled 1.5 mL Eppendorf tubes on ice. All samples were centrifuged at 10,000×g for 5 minutes and 50 μL of each sample was transferred to a white, opaque 96-well plate. Using a FluoStar Omega luminometer, 50 μL of luciferin:luciferase reagent (ATP bioluminescence assay kit HSII; Roche) was injected into each well and luminescence was recorded following a 5s orbital mix. ATP concentration in each sample was calculated from a standard curve for all experiments. Data are presented as a % change in ATP release from baseline (i.e. unstimulated cells) and expressed as mean±SEM (n=5 independent experiments with triplicate measurements).

Panx1 = test: Cell surface biotinylation after BFA, Panx1; format: cell-based, human; conditions: HUVEC and HSaVEC; BFA 5 μg/mL, 5 hour
Protocol: (§2) Cell surface biotinylation was performed as described previously^15. To deplete Cx43 hemichannels from the EC plasma membrane, venous and arterial ECs were grown to confluency in 6-well plates (Western blotting) or 24-well plates (ATP release) and treated with the vesicular exocytosis inhibitor brefeldin A (BFA; 5 μg/mL) for 5 hours at 37° C. Cells were washed once with cold 1× PBS and incubated with cold DMEM (without FBS) and 50 μM CBX at 4° C. for 30 minutes. CBX was added to prevent biotin from passing through Panx1 channels, which may label intracellular proteins. Cells were washed with PBS and incubated at 4° C. for 1 hour in cold PBS (1.5 mL/dish) containing EZ-link-sulfo-NHS-LC-biotin (1 mg/mL) and CBX (50 μM). The cells were washed again with PBS and lysed in PBS-T (PBS+0.5-1% Triton-X 100) containing protease inhibitors. Total protein was quantified using the BCA assay and equal amounts of protein were incubated with Streptavidin-agarose beads for 2 hours at 4° C. to pull down biotinylated (cell surface) proteins. Beads were then washed 5 times with 1× PBS-T, pelleted by centrifugation and proteins eluted by incubation with 5x sample buffer. Eluted proteins were subjected to SDS-PAGE and Western blotting for detection of Cx43 and Panx1.

Cx43 hemichannels = test: Cell surface biotinylation after BFA, Cx43; format: cell-based, human; conditions: HUVEC and HSaVEC; BFA 5 μg/mL, 5 hour
Protocol: as §2

HSaVEC = test: In vitro ATP release assay (luciferin:luciferase), HSaVEC; format: cell-based, human; conditions: HSaVEC
Protocol: as §1

[1] = BFA 5 μg/mL for 5 hours, TNFα 10 ng/mL 30 min

Nc1ncnc2c1ncn2[C@@H]1O[C@H](COP(=O)(O)OP(=O)(O)OP(=O)(O)O)[C@@H](O)[C@H]1O [ATP, adenosine 5′ triphosphate]
VCAM1 upregulation in Panx1 KO mice venules (VCAM1): rescued

C[C@H]1CCC/C=C/[C@@H]2C[C@H](O)C[C@H]2[C@H](O)/C=C/C(=O)O1 [BFA, brefeldin A]
TNFα-induced ATP release after Cx hemichannel depletion (HUVEC; [1]): unaffected | effect of inhibitor on TNFα-induced ATP release (HUVEC; antagonist 30 min, WP9QY 10 μM, La3+ 100 μM, BFA 5 μg/mL, RuR 20 μM, PP2/PP3 10 μM, Q-VD-OPh 100 μM): ruled out the involvement | expression of Panx1 at the EC surface (Panx1): without significantly altering | expression of Cx43 at the EC surface (Cx43 hemichannels): decreased | TNFα-induced ATP release after Cx hemichannel depletion (HSaVEC; [1]): unaffected | effect of inhibitor on TNFα-induced ATP release (HSaVEC; antagonist 30 min, WP9QY 10 μM, BFA 5 μg/mL, RuR 20 μM, PP2/PP3 10 μM): ruled out the involvement
